The record followed here is paper PMC4022547 (Molecular Brain, 2014).

Assay [1] deals with hα6(D199Y) + hβ4 + hβ3 nAChR (Homo sapiens, UniProt P30926+Q15825, D199Y). Put plainly: Oocyte two-electrode voltage clamp. Type of assay: cell-based. On the procedure:
(§1) We planned to introduce identical amounts of cRNA, presumably producing equal amounts of each subunit protein, into oocytes largely due to lack of information about the levels of mRNA for each subunits that compose α6*-nAChRs in neurons or other cells. Concentrations of cRNAs for each nAChR α and β subunits (WT, mutant or variant) were adjusted to 500 ng μL^−1. We provisionally assumed that hα6 or its variants in association with hβ2 or hβ4 subunits would form complexes having 2:3 and/or 3:2 ratios of the indicated subunits and that oocytes also injected with WT or mutant form of β3 subunits (i.e., β3^V9’S) would express nAChR with 2:2:1 ratios of α:β:(β3 or β3^V9’S) subunits. For expression of binary nAChRs (i.e., two subunit containing nAChRs; α + β but not β3) cRNA mixtures were prepared by mixing 1 μL of cRNA for each subunit and an additional μL of RNAse free water (i.e., total volume 3 μL). Similarly for expression of ternary nAChRs [i.e., three subunit containing nAChRs; (α + β) + (β3 or β3^V9’S)] cRNA mixtures were prepared by mixing 1 μL of cRNA for each subunit. Several preparations of each mixture were prepared and stored at −80°C until further use. Injection of 138 nL of cRNA, out of 3 μL cRNA mixtures, into each oocyte would deliver ~23 ng of cRNA for each subunit whether binary or ternary nAChRs are expressed.
(§2) Two to 5 days after injection, oocytes were placed in a small-volume chamber and continuously perfused with OR2. The chamber was grounded through an agarose bridge. The oocytes were voltage-clamped at −70 mV (unless otherwise noted) to measure agonist or antagonist induced currents using Axoclamp 900A and pClamp 10.2 software (Molecular Devices, Sunnyvale, CA). The current signal was low-pass filtered at 10 Hz with the built-in low-pass Bessel filter in the Axoclamp 900A and digitized at 20 Hz with Axon Digidata1440A and pClamp10. […] Drugs (agonists and antagonists) were prepared daily in OR2. Drug was applied using a Valvelink 8.2 perfusion system (Automate scientific, Berkeley, CA). […] Then for the purpose of comparison electrophysiological recordings were performed in a given day in a given batch of oocytes following the same order of injections. […] All hβ4*-nAChR recordings were done in similar conditions to facilitate comparisons between hα6hβ4- and hα6hβ4hβ3-nAChRs. All electrophysiological measurements were conducted or checked in at least two batches of oocytes.
(§3) Raw data was collected and processed in part using pClamp 10.2 (Molecular Devices, Sunnyvale, CA), Origin 7.5 (OriginLab Corporation, Northampton, MA) and a spreadsheet (Excel; Microsoft, Bellevue, WA). Peak current amplitudes (Imax) are reported as mean ± SEM (for results from at least three oocytes, i.e., n = 3).

Assay [2] has as its target T1, hα6(R87C) + WT hβ2 + hβ3^V9’S nAChR (Homo sapiens, UniProt P17787+Q15825, R87C).
T1 construct: Full length capped mRNA (i.e., cRNA) was transcribed from linearized plasmids; expressed in transfected cells; host or cells: Xenopus laevis oocytes injected with cRNA
The experiment in a line: Oocyte two-electrode voltage clamp. Type of assay: cell-based. The settings on record: ACh, nicotine or atropine; hβ2 type not specified. As for the experimental part: as §1, §2, §3
For orientation: Two-electrode voltage clamp holds a large cell at a set potential and records current.

Assay [3] addresses T2, hα6(R96H) + hβ4 nAChR (Homo sapiens, UniProt P30926+Q15825, R96H).
T2 construct: Full length capped mRNA (i.e., cRNA) was transcribed from linearized plasmids; expressed in transfected cells; host or cells: Xenopus laevis oocytes injected with cRNA
Put plainly: Oocyte two-electrode voltage clamp. The assay is classed as cell-based. The settings on record: 1000 μM ACh; 1 μM atropine co-applied. As for the experimental part: as §1, §2, §3

Assay [4] concerns the target hα6^D57Nhβ4hβ3^V9’S-nAChR (Homo sapiens, UniProt P30926+Q15825, D57N). As to conditions: nicotine (100 μM), ACh (100 μM) or atropine (1000 μM). On the procedure:
as §1, §2

In assay [5] the target is hα6^N171Khβ4β3^V9’S-nAChR (Homo sapiens, UniProt P30926+Q15825, N171K). The settings on record: nicotine (100 μM), ACh (100 μM) or atropine (1000 μM). As for the experimental part: as §1, §2
Assay [6] concerns the target hα6^R87C + hβ4 + hβ3^V9’S nAChR (Homo sapiens, UniProt P30926+Q15825, R87C). As to conditions: nicotine (100 μM), ACh (100 μM) or atropine (1000 μM). As for the experimental part: as §1, §2
In assay [7] the target is hα6^S156Rhβ4hβ3^V9’S-nAChR (Homo sapiens, UniProt P30926+Q15825, S156R). The settings on record: nicotine (100 μM), ACh (100 μM) or atropine (1000 μM). As for the experimental part:
as §1, §2

In assay [8] the target is hα6hβ4hβ3^V9’S-nAChR (Homo sapiens, UniProt P30926+Q05901+Q15825, V273S). As to conditions: nicotine (100 μM), ACh (100 μM) or atropine (1000 μM); spontaneously opening channels. As for the experimental part: as §1, §2
Sequence of hα6hβ4hβ3^V9’S-nAChR (Q15825 26-494): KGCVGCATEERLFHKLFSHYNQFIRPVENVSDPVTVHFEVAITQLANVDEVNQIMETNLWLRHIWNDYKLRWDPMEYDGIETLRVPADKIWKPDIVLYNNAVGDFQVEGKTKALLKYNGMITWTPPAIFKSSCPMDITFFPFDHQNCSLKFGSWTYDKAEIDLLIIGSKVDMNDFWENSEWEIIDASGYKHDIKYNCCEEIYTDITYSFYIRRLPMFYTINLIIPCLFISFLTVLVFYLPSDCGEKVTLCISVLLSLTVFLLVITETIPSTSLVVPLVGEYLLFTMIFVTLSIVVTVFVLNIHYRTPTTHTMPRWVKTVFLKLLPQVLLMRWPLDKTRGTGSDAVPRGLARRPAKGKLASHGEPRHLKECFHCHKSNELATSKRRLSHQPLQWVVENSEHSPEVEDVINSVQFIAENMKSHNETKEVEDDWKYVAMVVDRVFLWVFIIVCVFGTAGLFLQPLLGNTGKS
Sequence of hα6hβ4hβ3^V9’S-nAChR (P30926 22-498): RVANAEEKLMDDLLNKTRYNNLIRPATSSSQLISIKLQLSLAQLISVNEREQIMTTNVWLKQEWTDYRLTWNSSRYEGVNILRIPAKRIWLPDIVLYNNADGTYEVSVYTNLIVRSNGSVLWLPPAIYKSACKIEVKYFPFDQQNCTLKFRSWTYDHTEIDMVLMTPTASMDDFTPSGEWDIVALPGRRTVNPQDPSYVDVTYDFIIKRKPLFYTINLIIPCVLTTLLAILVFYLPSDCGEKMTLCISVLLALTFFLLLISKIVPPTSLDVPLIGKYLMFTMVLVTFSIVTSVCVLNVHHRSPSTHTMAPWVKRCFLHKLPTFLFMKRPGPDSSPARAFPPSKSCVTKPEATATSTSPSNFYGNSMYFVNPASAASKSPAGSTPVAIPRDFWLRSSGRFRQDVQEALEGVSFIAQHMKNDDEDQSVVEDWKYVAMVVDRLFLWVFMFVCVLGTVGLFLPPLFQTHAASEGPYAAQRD
Sequence of hα6hβ4hβ3^V9’S-nAChR (Q05901 22-458 V273S): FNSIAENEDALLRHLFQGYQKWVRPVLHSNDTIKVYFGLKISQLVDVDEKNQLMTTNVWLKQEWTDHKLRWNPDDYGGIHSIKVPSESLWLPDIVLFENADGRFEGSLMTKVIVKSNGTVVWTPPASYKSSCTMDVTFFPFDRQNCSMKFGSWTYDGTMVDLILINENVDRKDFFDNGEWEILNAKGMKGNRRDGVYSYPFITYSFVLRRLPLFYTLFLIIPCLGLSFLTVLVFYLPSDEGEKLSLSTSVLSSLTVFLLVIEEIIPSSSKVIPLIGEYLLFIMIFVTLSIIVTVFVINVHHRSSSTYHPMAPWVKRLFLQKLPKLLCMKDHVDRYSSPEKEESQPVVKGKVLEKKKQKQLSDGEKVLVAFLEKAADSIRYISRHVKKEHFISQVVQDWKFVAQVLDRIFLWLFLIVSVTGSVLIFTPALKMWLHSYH

Sequence of hα6(D199Y) + hβ4 + hβ3 nAChR (Q15825 26-494 D199Y): as the sequence (Q15825 26-494) above, with D174Y counted along it
Sequence of hα6(D199Y) + hβ4 + hβ3 nAChR (P30926 22-498): as the sequence (P30926 22-498) above
Sequence of hα6(D199Y) + hβ4 + hβ3 nAChR (Q05901 25-458 partner limits assumed): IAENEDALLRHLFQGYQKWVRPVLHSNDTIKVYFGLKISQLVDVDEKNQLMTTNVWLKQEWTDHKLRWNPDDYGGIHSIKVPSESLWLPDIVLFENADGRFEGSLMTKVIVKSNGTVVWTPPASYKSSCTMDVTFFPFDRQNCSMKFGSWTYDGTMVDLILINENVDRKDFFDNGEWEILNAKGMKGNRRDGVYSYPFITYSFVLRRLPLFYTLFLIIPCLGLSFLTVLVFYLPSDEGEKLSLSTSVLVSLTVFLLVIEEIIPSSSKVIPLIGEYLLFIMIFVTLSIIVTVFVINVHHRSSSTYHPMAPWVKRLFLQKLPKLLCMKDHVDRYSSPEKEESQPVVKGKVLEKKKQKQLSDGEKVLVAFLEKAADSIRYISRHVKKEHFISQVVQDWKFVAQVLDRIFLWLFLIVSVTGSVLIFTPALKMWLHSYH
Sequence of hα6^D57Nhβ4hβ3^V9’S-nAChR (Q15825 26-494 D57N): as the sequence (Q15825 26-494) above, with D32N counted along it
Sequence of hα6^D57Nhβ4hβ3^V9’S-nAChR (P30926 22-498): as the sequence (P30926 22-498) above
Sequence of hα6^D57Nhβ4hβ3^V9’S-nAChR (Q05901 25-458 V273S partner limits assumed): as the sequence (Q05901 25-458 partner limits assumed) above, with V249S counted along it
T2 sequence (Q15825 26-494 R96H): as the sequence (Q15825 26-494) above, with R71H counted along it
T2 sequence (P30926 22-498, stated change not applied): as the sequence (P30926 22-498) above
Sequence of hα6^R87C + hβ4 + hβ3^V9’S nAChR (Q15825 26-494 R87C): as the sequence (Q15825 26-494) above, with R62C counted along it
Sequence of hα6^R87C + hβ4 + hβ3^V9’S nAChR (P30926 22-498): as the sequence (P30926 22-498) above
Sequence of hα6^R87C + hβ4 + hβ3^V9’S nAChR (Q05901 25-458 V273S partner limits assumed): as the sequence (Q05901 25-458 partner limits assumed) above, with V249S counted along it
T1 sequence (Q15825 26-494 R87C): as the sequence (Q15825 26-494) above, with R62C counted along it
T1 sequence (P17787 26-502): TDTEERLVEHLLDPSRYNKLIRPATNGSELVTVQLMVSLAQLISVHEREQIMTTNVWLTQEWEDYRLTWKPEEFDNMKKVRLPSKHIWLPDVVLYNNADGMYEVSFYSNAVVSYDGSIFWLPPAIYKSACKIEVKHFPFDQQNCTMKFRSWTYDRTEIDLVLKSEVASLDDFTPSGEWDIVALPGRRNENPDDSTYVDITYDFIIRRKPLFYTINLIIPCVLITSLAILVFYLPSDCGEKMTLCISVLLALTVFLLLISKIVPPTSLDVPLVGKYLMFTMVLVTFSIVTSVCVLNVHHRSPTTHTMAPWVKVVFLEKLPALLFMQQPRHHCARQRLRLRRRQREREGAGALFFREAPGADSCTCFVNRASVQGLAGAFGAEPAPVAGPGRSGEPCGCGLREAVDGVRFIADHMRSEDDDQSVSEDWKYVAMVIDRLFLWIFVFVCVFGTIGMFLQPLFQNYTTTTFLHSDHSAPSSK
T1 sequence (Q05901 25-458 V273S partner limits assumed): as the sequence (Q05901 25-458 partner limits assumed) above, with V249S counted along it
Sequence of hα6^N171Khβ4β3^V9’S-nAChR (Q15825 26-494 N171K): as the sequence (Q15825 26-494) above, with N146K counted along it
Sequence of hα6^N171Khβ4β3^V9’S-nAChR (P30926 22-498): as the sequence (P30926 22-498) above
Sequence of hα6^N171Khβ4β3^V9’S-nAChR (Q05901 25-458 V273S partner limits assumed): as the sequence (Q05901 25-458 partner limits assumed) above, with V249S counted along it
Sequence of hα6^S156Rhβ4hβ3^V9’S-nAChR (Q15825 26-494 S156R): as the sequence (Q15825 26-494) above, with S131R counted along it
Sequence of hα6^S156Rhβ4hβ3^V9’S-nAChR (P30926 22-498): as the sequence (P30926 22-498) above
Sequence of hα6^S156Rhβ4hβ3^V9’S-nAChR (Q05901 25-458 V273S partner limits assumed): as the sequence (Q05901 25-458 partner limits assumed) above, with V249S counted along it

`CC(=O)OCC[N+](C)(C)C` [ACh, acetylcholine]: in assay [1], the “nH ± SE (Hill coefficient)” value was 1.1 ± 0.07. Moreover, the “Mean Imax ± SE (nA)” value is on record as 494 ± 51 nA in assay [1] (1000 μM ACh, 1 μM atropine co-applied) and 31 ± 4 nA in assay [3]. In addition, the current response result in assay [2] and in assay [6] was “not obtained” each time. Moreover, the “current response (direction)” value in assay [4] was “outward reversible currents”; in assay [5], “outward reversible currents”; in assay [7], “outward reversible currents”; in assay [8], “robust inward current”.
